Test results reported in publication PMC8073005, “Antifungal Activity and DNA Topoisomerase Inhibition of Hydrolysable Tannins from Punica granatum L” (International Journal of Molecular Sciences, 2021).

Tests used:
DNA topoisomerase I = target: DNA topoisomerase I; design: method as in PMID 1324981; settings: reported; cited from earlier work
Candida parapsilosis 7 = assay: MIC, broth microdilution (human pathogens); type: cell-based; settings: Lodderomyces parapsilosis, 7, 48 h, read-out: Minimum inhibitory concentration (MIC)
Candida albicans SC 5314 [1] = assay: Time-kill curves; type: cell-based; settings: C. albicans SC 5314; compound at its MIC value; 0–96 h
Candida albicans SC 5314 [2] = assay: MIC, broth microdilution (human pathogens); type: cell-based; settings: Candida albicans, SC5314, 48 h, read-out: Minimum inhibitory concentration (MIC)
Candida albicans 44 = assay: MIC, broth microdilution (human pathogens); type: cell-based; settings: Candida albicans, 44, 48 h, read-out: Minimum inhibitory concentration (MIC)
Candida strains = assay: Agar Disk Diffusion Assay, Candida strains; type: cell-based; settings: 100 µg
Candida parapsilosis = assay: MIC, broth microdilution (human pathogens); type: cell-based; settings: Lodderomyces parapsilosis, 48 h, read-out: Minimum inhibitory concentration (MIC)
[3] = test system: Colletotrichum acutatum s.s. M146-2; assay: MIC, micro-spectrophotometric growth assay (phytopathogens); type: cell-based, Colletotrichum acutatum sensu stricto
Candida albicans 1 = assay: MIC, broth microdilution (human pathogens); type: cell-based; settings: Candida albicans, 1, 48 h, read-out: Minimum inhibitory concentration (MIC)
[4] = test system: Cryptococcus var. grubii H99 serotype A; assay: MIC, broth microdilution (human pathogens); type: cell-based; settings: Cryptococcus, 48 h, read-out: Minimum inhibitory concentration (MIC)
[5] = test system: Aspergillus brasiliensis ATCC 16404; assay: MIC, broth microdilution (human pathogens); type: cell-based; settings: Aspergillus brasiliensis, ATCC16404, 48 h, read-out: Minimum inhibitory concentration (MIC)
Aspergillus candidus 3 = assay: MIC, broth microdilution (human pathogens); type: cell-based; settings: Aspergillus candidus, 3, 48 h, read-out: Minimum inhibitory concentration (MIC)
[6] = test system: Candida albicans ATCC 10321; assay: MIC, broth microdilution (human pathogens); type: cell-based; settings: Candida albicans, ATCC10321, 48 h, read-out: Minimum inhibitory concentration (MIC)
[7] = test system: Cryptococcus neoformans B 3501; assay: MIC, broth microdilution (human pathogens); type: cell-based; settings: Cryptococcus neoformans, B3501, 48 h, read-out: Minimum inhibitory concentration (MIC)
Candida albicans H = assay: MIC, broth microdilution (human pathogens); type: cell-based; settings: Candida albicans, 48 h, read-out: Minimum inhibitory concentration (MIC)
Candida albicans 40 = assay: MIC, broth microdilution (human pathogens); type: cell-based; settings: Candida albicans, 40, 48 h, read-out: Minimum inhibitory concentration (MIC)
Cryptococcus 67 = assay: MIC, broth microdilution (human pathogens); type: cell-based; settings: Cryptococcus, 67, 48 h, read-out: Minimum inhibitory concentration (MIC)
[8] = target: T1, topoisomerase I from Candida albicans (Candida albicans, UniProt Q00313); assay: Topoisomerase I supercoiled DNA relaxation inhibition; type: biochemical
T1 sequence (Q00313 1-778): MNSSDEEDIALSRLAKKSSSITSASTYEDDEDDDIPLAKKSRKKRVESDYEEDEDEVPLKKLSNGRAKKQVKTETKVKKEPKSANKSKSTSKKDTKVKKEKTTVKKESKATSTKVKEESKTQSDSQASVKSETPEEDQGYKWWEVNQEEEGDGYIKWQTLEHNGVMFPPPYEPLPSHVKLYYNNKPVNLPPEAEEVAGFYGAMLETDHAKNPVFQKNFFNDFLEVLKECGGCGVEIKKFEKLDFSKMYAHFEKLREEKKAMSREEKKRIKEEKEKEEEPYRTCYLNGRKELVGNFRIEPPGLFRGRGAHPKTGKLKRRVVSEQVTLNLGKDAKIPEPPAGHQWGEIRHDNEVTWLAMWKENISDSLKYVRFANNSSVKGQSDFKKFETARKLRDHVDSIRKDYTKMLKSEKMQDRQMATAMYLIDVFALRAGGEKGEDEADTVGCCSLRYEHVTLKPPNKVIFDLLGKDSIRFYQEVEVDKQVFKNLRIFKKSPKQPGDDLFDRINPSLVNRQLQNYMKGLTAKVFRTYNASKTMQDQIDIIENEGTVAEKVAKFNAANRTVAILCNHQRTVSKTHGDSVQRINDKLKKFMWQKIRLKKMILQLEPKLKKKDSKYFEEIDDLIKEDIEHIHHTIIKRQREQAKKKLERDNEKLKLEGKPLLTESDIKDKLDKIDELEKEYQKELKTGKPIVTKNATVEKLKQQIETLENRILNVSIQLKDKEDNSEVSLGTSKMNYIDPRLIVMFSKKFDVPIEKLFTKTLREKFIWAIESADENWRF

Candida albicans 2 = assay: MIC, broth microdilution (human pathogens); type: cell-based; settings: Candida albicans, 2, 48 h, read-out: Minimum inhibitory concentration (MIC)
[9] = test system: other genera tested (other fungi strains); assay: Agar Disk Diffusion Assay, other genera; type: cell-based; settings: 100 µg
Procedure: The antifungal activity of pomegranate compounds was evaluated against 19 clinically isolated fungal strains, including nine belonging to Candida albicans species, two belonging to Aspergillus genus, one belonging to Cryptococcus genus, and one Saccharomyces cerevisiae. The C. albicans strains were isolated on CHROMID agar, Aspergillus and Cryptococcus genus were isolated on SDA-CAF and one Saccharomyces cerevisiae on SDA. All the isolates were confirmed by matrix-assisted laser desorption ionization (MALDI) time-of-flight mass spectrometry (TOF/MS). Strains from the American Type Culture Collection (ATCC) were included. All strains were maintained in SDB with 20% (w/v) glycerol at −80 °C until use and sub-cultured in SDA before each test.
The preliminary determination of the antifungal activity of the target compounds (punicalagin, punicalin, ellagic acid, and gallic acid) from pomegranate was carried out by means of the agar disk diffusion assay, according to the standard procedure of the Clinical and Laboratory Standards Institute, with slight modifications. Plates containing SDA were uniformly spread with 100 μL of 10^3 conidia/mL of each strain suspension. […] Disks containing fluconazole (25 μg), amphotericin B (25 μg) and DMSO (20 μL) were used as the positive and the negative control, respectively. The antifungal activity of pomegranate compounds was evaluated by measuring the diameter of the clear inhibition zone formed right around the disks after 48 h incubation at 30 ± 1 °C. The experiment was carried out in triplicate.

Coniella granati M0_C2 = assay: MIC, micro-spectrophotometric growth assay (phytopathogens); type: cell-based
Candida albicans 41 = assay: MIC, broth microdilution (human pathogens); type: cell-based; settings: Candida albicans, 41, 48 h, read-out: Minimum inhibitory concentration (MIC)
[10] = test system: Cryptococcus neoformans ATCC 11240; assay: MIC, broth microdilution (human pathogens); type: cell-based; settings: Cryptococcus neoformans, ATCC11240, 48 h, read-out: Minimum inhibitory concentration (MIC)
[11] = test system: Saccharomyces cerevisiae 42; assay: MIC, broth microdilution (human pathogens); type: cell-based; settings: Saccharomyces cerevisiae, 42, 48 h, read-out: Minimum inhibitory concentration (MIC)
[12] = test system: Alternaria alternata AL19; assay: MIC, micro-spectrophotometric growth assay (phytopathogens); type: cell-based; settings: Alternaria alternata AL19; PDB, 24 °C, dark; imazalil at label dose; read-out: Minimum inhibitory concentration (MIC)
[13] = test system: C. albicans 1 (clinically isolated strain); assay: Time-kill curves; type: cell-based, Candida albicans; settings: compound at its MIC value, 0–96 h
Candida zeylanoides 33 = assay: MIC, broth microdilution (human pathogens); type: cell-based; settings: Dujonia zeylanoides, 33, 48 h, read-out: Minimum inhibitory concentration (MIC)
Aspergillus candidus 25 = assay: MIC, broth microdilution (human pathogens); type: cell-based; settings: Aspergillus candidus, 25, 48 h, read-out: Minimum inhibitory concentration (MIC)
Botrytis cinerea B2 = assay: MIC, micro-spectrophotometric growth assay (phytopathogens); type: cell-based; settings: Botrytis cinerea B2; PDB, 24 °C, dark; imazalil at label dose; read-out: Minimum inhibitory concentration (MIC)

O=C(O)C[C@@H]1C(=O)O[C@H]2[C@@H]3OC(=O)c4cc(O)c(O)c(O)c4-c4c(cc(O)c(O)c4O)C(=O)OC[C@H]2O[C@@H](OC(=O)c2cc(O)c(O)c(O)c2)[C@@H]3OC(=O)c2cc(O)c(O)c3c2[C@H]1[C@H](O)C(=O)O3 [CHEMBL525240, Chebulagic acid]
IC50 (DNA topoisomerase I): 0.05 µM

O=C1O[C@H]2[C@@H]3OC(=O)c4cc(O)c(O)c(O)c4-c4c(O)c(O)c5oc(=O)c6c(c(O)c(O)c7oc(=O)c4c5c76)-c4c(cc(O)c(O)c4O)C(=O)OC[C@H]3OC(O)[C@@H]2OC(=O)c2cc(O)c(O)c(O)c2-c2c1cc(O)c(O)c2O (mixture of isomers) [Punicalagin, punicalagin]
MIC (Candida parapsilosis 7): 5.5 µM
time-kill curve (susceptibility time-course) (Candida albicans SC 5314 [1]): major reduction in the number of C. albicans SC 5314 cells
MIC (Candida albicans SC 5314 [2]): 0.7 µM
MIC (Candida albicans 44): 92.2 µM
share of Candida strains with inhibition zone from 21 to 30 mm (Candida strains): 82%
MIC (Candida parapsilosis): 0.7 µM
growth reduction ([3]; C. acutatum s.s., at 48 h): 66%
MIC ([3]; Colletotrichum acutatum s.s. M146-2, PDB, 24 °C, dark, imazalil at label dose, read-out: Minimum inhibitory concentration (MIC)): 184.4 µM
MIC (Candida albicans 1): 1.4 µM
MIC [4]: 92.2 µM
MIC [5]: 2.8 µM
MIC (Aspergillus candidus 3): 92.2 µM
MIC [6]: 0.7 µM
MIC [7]: 46.1 µM
MIC (Candida albicans H): 92.2 µM
MIC (Candida albicans 40): 5.5 µM
MIC (Cryptococcus 67): 92.2 µM
IC50 [8]: 9 ± 1.2 µM
MIC (Candida albicans 2): 1.4 µM
share of other genera tested with inhibition zone from 21 to 30 mm [9]: 63%
growth reduction (Coniella granati M0_C2; C. granati, 48 h of incubation): 83%
MIC (Coniella granati M0_C2; Coniella granati M0_C2, PDB, 24 °C, dark, imazalil at label dose, read-out: Minimum inhibitory concentration (MIC)): 184.4 µM
MIC (Candida albicans 41): 92.2 µM
MIC [10]: 23 µM
MIC [11]: 1.4 µM
MIC [12]: 92.2 µM
time-kill curve (susceptibility time-course) [13]: preserved the antifungal activity until the end of the test (96 h)
MIC (Candida zeylanoides 33): 92.2 µM
MIC (Aspergillus candidus 25): 92.2 µM
MIC (Botrytis cinerea B2): 92.2 µM
